US4698350A, “1-ethyl-6-fluoro-1,4-dihydro- 7-(2,6-dimethyl-4-pyridinyl)-4-oxo-3-quinolinecarboxylic acid and antibacterial use thereof” (Sterling Drug Inc., priority 1984, dated 1987)
In brackets after ≈: the same amount, converted by molar mass. Structures can show the parent of a compound that is named as a salt. Where two headings read alike, the source gives them in different places.

What was measured:
E. coli = experiment: In vitro MIC/MBC summary (Table II); type: cell-based; details: Escherichia coli, 5 E. coli strains
Procedure: (§1) Win 52,522 and Win 35,439 were solubilized in 0.1 ml of 0.5 N NaOH/mg of compound and diluted in sterile distilled water to 160 mcg/ml. Vancomycin and methicillin were solubilized in sterile distilled water to 1250 mcg/ml of base compound. The stock solutions were sterilized by filtration through membrane filters with a 0.45 μm pore size.
(§2) The bacterial cultures listed in Table I (hereinbelow) were grown overnight at 37° C. in MHB for all cultures except the Streptococcus strains. These were grown in BHI+10% NHS. The overnight broth cultures were adjusted to an optical density of 0.10 (650 nm, B L Spectronic 20) in sterile distilled water and subsequently diluted to 6.7×10^6 cells/ml in MHB or BHI+1% NHS.
(§3) Serial two-fold dilutions of the compound solutions were prepared in MHB (or in BHI+1% NHS for tests with Streptococci) and dispensed into 96-well microtiter trays in a volume of 0.1 ml/well using a Sandy Springs (Bellco Glass Co.) dispenser. The trays were then inoculated with 0.0015 ml of a suspension containing 6.7×10^6 cells/ml of the appropriate inoculum using a MIC-2000 inoculator (Dynatech Corp.) resulting in a final inoculum of approximately 1×10^4 cells/well or 1×10^5 cells/ml. The trays were incubated at 37° C. for 18-20 hours and the minimal inhibitory concentration (MIC), defined as the lowest concentration of compound to inhibit visible bacterial growth, was recorded.
After the MIC values were recorded, the contents in the microtiter trays were thoroughly mixed on a Bellco Mini-orbital Shaker (Bellco Glass Co.) for 3 min. at a setting of 8. A portion (0.0015 ml) from each well was then transferred via an MIC-2000 inoculator to plates containing MHA or BHI agar+10% NHS. The plates were incubated at 37° C. for 18-20 hrs. The minimal bactericidal concentration (MBC), defined as the lowest concentration of compound that prevented the formation of a recognizable colony on the agar surface, was recorded.

Escherichia coli Vogel = experiment: Mouse protection test, E. coli Vogel infection; type: in vivo, ICR mice; Escherichia coli; details: for ED50: Escherichia coli, 168 h, once one-half hour postinfection, read-out: Protective Dose 50% (95% Confidence Limits); for times more efficacious than Win 35,439: E. coli infection
Procedure: ICR mice, female, 18-20 grams each.
Solutions of Win 52,522 and Win 35,439 were prepared by dissolving the appropriate weight of drug in 0.3 to 0.4 ml of 1 N NaOH and then bringing the solutions to the desired volume with distilled water. Methicillin and vancomycin were dissolved directly in distilled water.
The culture was inoculated into 10 ml of Brain Heart Infusion broth and grown statically for 16 hours at 37° C. Fresh tubes of the same broth were inoculated with 0.1 ml portions of the 16 hour broth culture and incubation continued for 5 hours at 37° C. The 5 hour broth culture was finally diluted with saline to provide the test inoculum containing 4.0×10^7 cells/ml.
Mice were inoculated intraperitoneally with 0.5 ml of the bacterial test inoculum.
Mice were medicated subcutaneously or orally once (0.5 ml) one-half hour postinfection.
Deaths were recorded daily for seven days for all tests. Fifty percent protective dose values (PD50's) were calculated using probit analysis [SAS Users Guide: Statistics, 1982 Edition, SAS Institute, Inc., Cary, N.C.].

B. gingivalis = experiment: Agar dilution MIC, anaerobic microorganisms; type: cell-based; details: Porphyromonas gingivalis, 48 h; B. gingivalis; read-out: MIC
Procedure: (§4) 1. Maintenance. Prior to use, all strains were maintained in the lyophilized state. During the study, cultures were examined on blood agar basal medium supplemented with 5.0% (v/v) defibrinated rabbit blood. Culture transfer was accomplished weekly with all cultures being incubated in an anaerobic atmosphere (GasPak jar; BBL).
(§5) 2. Agar Medium. The basal test medium consisted of trypticase soy agar (40 g), yeast extract (1 g), glucose (2 g) and 960 ml of distilled water pH 7.2. [Mashimo et al., J. Clin. Micro. 17, 187-191 (1983)]. Subsequent to sterilization and cooling to 50° C., the medium was supplemented with 4% (v/v) defibrinated rabbit blood and 0.5 μg/ml menadione (Vitamin K3) The agent under evaluation was also added at this time to the concentration desired. Subsequent to pouring of the plates, they were permitted to dry at 4° C. for 24 hr.
(§6) 3. Determination of Agent MIC. The minimal inhibitory concentration (MIC) of the various test agents was determined using an agar dilution technique. Agents and appropriate reference compounds were added to achieve a series of concentrations ranging between 32 μg/ml and 0.007 μg/ml. The inocula were prepared from 96-hr. cultures grown on the maintenance medium. Subsequent to a purity evaluation, colonies were removed and suspended in trypticase soy broth supplemented with 5 μg/ml menadione and 2% lysed rabbit blood filtrate to achieve an OD650 of 0.1 (this corresponded to approximately 10^8 cells/ml). Cultures were inoculated aerobically on the modified trypticase soy blood agar plates by use of a Steer's replicator (which delivers about 10^5 cells per spot). The plates were allowed to dry for a time not exceeding 30 min. and then incubated at 37° C. under an atmosphere of […], 10% H2 and 5% CO2 maintained in an anaerobic chamber (Coy Manufacturing Co.) for 48 hr. The MIC was defined as the lowest concentration completely inhibiting growth.
(§7) Tetracycline stock solutions (1 mg/ml) were made subsequent to dissolution in water. Stock solutions (1 mg/ml) of the remaining test compounds were made subsequent to dissolution in 1/10 N NaOH.

F. nucleatum = experiment: Agar dilution MIC, anaerobic microorganisms; type: cell-based; details: Fusobacterium nucleatum, 48 h; F. nucleatum; read-out: MIC
Procedure: as §4, §5, §6, §7

Capnocytophaga suptigena = experiment: Agar dilution MIC, anaerobic microorganisms; type: cell-based; details: 48 h; Capnocytophaga suptigena; read-out: MIC
Procedure: as §4, §5, §6, §7

B. melaninogenicus = experiment: Agar dilution MIC, anaerobic microorganisms; type: cell-based; details: 48 h; B. melaninogenicus; read-out: MIC
Procedure: as §4, §5, §6, §7

B. oralis = experiment: Agar dilution MIC, anaerobic microorganisms; type: cell-based; details: Hoylesella oralis, 48 h; B. oralis; read-out: MIC
Procedure: as §4, §5, §6, §7

A. actinomycetemcomitans = experiment: Agar dilution MIC, anaerobic microorganisms; type: cell-based; details: Aggregatibacter actinomycetemcomitans, 48 h; A. actinomycetemcomitans; read-out: MIC
Procedure: as §4, §5, §6, §7

Gram-positive cocci = experiment: In vitro antibacterial activity; type: cell-based, S. aureus, S. epidermidis and Streptococcus species
Procedure: as §1, §2
as §3, with “recorded. […]” for “recorded.”

SMILES	MIC (E. coli) [µg/mL]	MIC50 (E. coli) [µg/mL]	MIC90 (E. coli) [µg/mL]	MBC (E. coli; read-out: MBC 50%) [µg/mL]	MBC (E. coli; read-out: MBC Range) [µg/mL]	Survivors/Total (Escherichia coli Vogel; 3.13 mg/kg po)	Survivors/Total (Escherichia coli Vogel; 3.13 mg/kg sc)	Survivors/Total (Escherichia coli Vogel; 6.25 mg/kg po)	Survivors/Total (Escherichia coli Vogel; 6.25 mg/kg sc)	Survivors/Total (Escherichia coli Vogel; 12.5 mg/kg po)	Survivors/Total (Escherichia coli Vogel; 12.5 mg/kg sc)	Survivors/Total (Escherichia coli Vogel; 25 mg/kg po)	Survivors/Total (Escherichia coli Vogel; 25 mg/kg sc)	ED50 (Escherichia coli Vogel; po, po) [mg/kg]	ED50 (Escherichia coli Vogel; sc, sc) [mg/kg]	MIC (B. gingivalis) [µg/mL]	MIC (F. nucleatum) [µg/mL]	MIC (Capnocytophaga suptigena) [µg/mL]	MIC (B. melaninogenicus) [µg/mL]	MIC (B. oralis) [µg/mL]	further results
CCn1cc(C(=O)O)c(=O)c2ccc(-c3cc(C)nc(C)c3)cc21 [Win 35,439, 1-ethyl-1,4-dihydro-7-(2,6-dimethyl-4-pyridinyl)-4-oxo-3-quinolinecarboxylic acid]	0.5 to 2 (≈ 1.55 to 6.2 µM)	0.5 (≈ 1.55 µM)	2 (≈ 6.2 µM)	0.5 (≈ 1.55 µM)	0.5 to 2 (≈ 1.55 to 6.2 µM)	0/10	1/10	0/10	0/10	2/10	4/10	9/10	10/10	16.5	13.5	> 10	4 (≈ 12.4 µM)	0.5 (≈ 1.55 µM)	8 (≈ 24.8 µM)	> 10	MIC (A. actinomycetemcomitans): 0.25 µg/mL (≈ 0.776 µM)
COc1cccc(OC)c1C(=O)N[C@@H]1C(=O)N2[C@@H]1SC(C)(C)[C@@H]2C(=O)O [Methicillin, 6-(2,6-dimethoxybenzamido)penicillanic acid sodium salt]																					bactericidal / bacteriostatic (Gram-positive cocci; Gram-positive cocci): bactericidal
CCn1cc(C(=O)O)c(=O)c2cc(F)c(-c3cc(C)nc(C)c3)cc21 [Win 52,522, 1-ethyl-6-fluoro-1,4-dihydro-7-(2,6-dimethyl-4-pyridinyl)-4-oxo-3-quinolinecarboxylic acid]	0.25 to 0.5 (≈ 0.735 to 1.47 µM)	0.25 (≈ 0.735 µM)	0.25 (≈ 0.735 µM)	0.25 (≈ 0.735 µM)	0.25 to 0.5 (≈ 0.735 to 1.47 µM)	0/10	0/10	2/10	8/10	9/10	10/10	10/10	10/10	8.2	~5.2	2 (≈ 5.88 µM)	0.5 (≈ 1.47 µM)	0.06 (≈ 0.176 µM)	1 (≈ 2.94 µM)	4 (≈ 11.8 µM)	times more potent in vitro than Win 35,439 (Gram-positive cocci; several Gram-positive cocci): 2-8 times; Survivors/Total (Escherichia coli Vogel; 1.56 mg/kg po): 0/10; Survivors/Total (Escherichia coli Vogel; 1.56 mg/kg sc): 0/10; times more efficacious than Win 35,439 (Escherichia coli Vogel; p.o.): 2.0 times; times more efficacious than Win 35,439 (Escherichia coli Vogel; s.c.): 2.6 times; PD50 values relative to those of Win 35,439 (Escherichia coli Vogel; subcutaneous and oral): approximately one-half; MIC (A. actinomycetemcomitans): 0.12 µg/mL (≈ 0.353 µM)
